Experimental data: article PMC12133982, “Predominant T-cell epitopes of SARS-CoV-2 restricted by multiple prevalent HLA-B and HLA-C allotypes in Northeast Asia” (Frontiers in Immunology, 2025)
pIC50: −log10 of the molar value. Where two headings read alike, the source gives them in different places. Peptide text beside a SMILES is read from it.

Columns and labels:
HLA-C0602 = HLA-C0602 (Homo sapiens, UniProt P10321, A176E/A330V/C350S/L171W/L180W/L218V/M285V/M309V/M331V/N104K/P208H/Q277E/Q291P/R121W/S101N/S123Y/S297R/T329A/T363A/V319A/V328M); assay: Competitive peptide binding assay, CIR-C0602
HLA-C0102 = HLA-C0102 (Homo sapiens, UniProt P10321, A176E/A330V/A35S/A97T/C350S/D114A/D33F/L171W/L180R/L218V/M285V/M309V/M331V/P208H/Q277E/Q291P/R121W/R243W/R30K/S123C/S140Y/S297R/T329A/T363A/V272M/V319A); assay: Competitive peptide binding assay, CIR-C0102; conditions: for inhibition at 5 µM / inhibition at 15 µM: read-out: Inhibition % of Cy5-reference peptide binding
Procedure: (§1) Then, competitive peptide binding assays were performed.

HLA-C0801 = HLA-C0801 (Homo sapiens, UniProt P10321, A176T/A330V/A97T/C350S/D114A/D138N/D33Y/E201K/E299G/L171W/L218V/M285V/M309V/M331V/P208H/Q277E/Q291P/R59Q/S123Y/S140F/S297R/S48A/T329A/T363A/V319A/V328M); assay: Competitive peptide binding assay, CIR-C0801; conditions: HMy2.CIR-C0801 cells, reference Cy5-[…], class from inhibition at 5 and 15 μM, flow cytometry MFI; read-out: Binding affinity with HLA-C0801
Procedure: as §1

HLA-C0702 = HLA-C0702 (Homo sapiens, UniProt P10321); assay: Competitive peptide binding assay, CIR-C0702
HLA-C0401 = HLA-C0401 (Homo sapiens, UniProt P10321, A176E/A330V/A35S/A73E/C25G/C350S/D138N/D33S/E299K/L171W/L180R/L218V/M285V/M309V/M331V/N104K/P208H/Q277E/Q291P/R243W/R38W/S101N/S123F/S140F/S297R/S48A/T329A/T363A/V319A/V327M); assay: Competitive peptide binding assay, CIR-C0401; conditions: HMy2.CIR-C0401 cells, reference Cy5-[…], class from inhibition at 5 and 15 μM, flow cytometry MFI; read-out: Binding affinity with HLA-C0401
Procedure: as §1

HLA-C0304 = HLA-C0304 (Homo sapiens, UniProt P10321, A176E/A330V/A97T/C25G/C350S/D114A/D33Y/E197K/L119I/L127V/L171W/L218V/M285V/M309V/M331V/P208H/Q277E/Q291P/R243W/R45H/S123Y/S140Y/S297R/S48A/T118I/T187L/T329A/T363A/V319A); assay: Competitive peptide binding assay, CIR-C0304; conditions: HMy2.CIR-C0304 cells, reference Cy5-[…], class from inhibition at 5 and 15 μM, flow cytometry MFI; read-out: Binding affinity with HLA-C0304
Procedure: as §1

HLA-C0302 = HLA-C0302 (Homo sapiens, UniProt P10321, A176E/A330V/A97T/C25G/C350S/D114A/D33Y/E197K/L127V/L171W/L218V/M285V/M309V/M331V/P208H/Q277E/Q291P/R243W/R45H/S123Y/S297R/S48A/T118I/T187L/T329A/T363A/V319A); assay: Competitive peptide binding assay, CIR-C0302; conditions: HMy2.CIR-C0302 cells, reference Cy5-[…], class from inhibition at 5 and 15 μM, flow cytometry MFI; read-out: Binding affinity with HLA-C0302
Procedure: as §1

[1] = HMy2.CIR-C0102 cells, reference Cy5-[…], class from inhibition at 5 and 15 μM, flow cytometry MFI, read-out: Binding affinity with HLA-C0102

Row | SMILES | pIC50 (HLA-C0602) | pIC50 (HLA-C0102; [1]) | pIC50 (HLA-C0801) | pIC50 (HLA-C0702) | pIC50 (HLA-C0401) | pIC50 (HLA-C0304) | inhibition at 5 µM (HLA-C0102) | inhibition at 15 µM (HLA-C0102) | pIC50 (HLA-C0302) | pIC50 (HLA-C0102)
1 | CC[C@H](C)[C@H](NC(=O)[C@H](CCCNC(=N)N)NC(=O)[C@H](CC(C)C)NC(=O)[C@H](CCSC)NC(=O)[C@H](CC(N)=O)NC(=O)[C@@H]1CCCN1C(=O)[C@H](CCSC)NC(=O)[C@H](C)NC(=O)[C@@H](N)CCCNC(=N)N)C(=O)O [Epitope M30] (H-RAMPNMLRI-OH; N-terminus and C-terminus assumed) | > 5.30 | 4.82 to 5.30 | < 4.82 | < 4.82 | < 4.82 | – | – | – | – | –
2 | CC[C@H](C)[C@H](NC(=O)[C@H](CCC(N)=O)NC(=O)[C@H](CC(C)C)NC(=O)[C@H](C)NC(=O)[C@H](C)N)C(=O)N1CCC[C@H]1C(=O)N[C@@H](Cc1ccccc1)C(=O)N[C@@H](C)C(=O)N[C@@H](CCSC)C(=O)O [Epitope M66] (H-AALQIPFAM-OH; N-terminus and C-terminus assumed) | 4.82 to 5.30 | – | – | – | – | > 5.30 | – | – | – | –
3 | C[C@H](NC(=O)[C@H](CO)NC(=O)[C@H](C)NC(=O)[C@H](CO)NC(=O)[C@@H]1CCCN1C(=O)[C@H](C)NC(=O)[C@@H](N)Cc1ccccc1)C(=O)N[C@@H](Cc1ccccc1)C(=O)N[C@@H](Cc1ccccc1)C(=O)O [Epitope M16] (H-FAPSASAFF-OH; N-terminus and C-terminus assumed) | < 4.82 | 4.82 to 5.30 | – | < 4.82 | 4.82 to 5.30 | – | 37% | 81.4% | > 5.30 | –
4 | C[C@@H](O)[C@H](NC(=O)[C@H](CCC(N)=O)NC(=O)[C@H](CC(=O)O)NC(=O)[C@H](Cc1c[nH]c2ccccc12)NC(=O)[C@H](Cc1ccc(O)cc1)NC(=O)[C@H](CCCCN)NC(=O)[C@H](Cc1ccccc1)NC(=O)[C@@H](N)Cc1ccc(O)cc1)C(=O)N[C@@H](Cc1ccc(O)cc1)C(=O)O [Epitope M122] (H-YFKYWDQTY-OH; N-terminus and C-terminus assumed) | < 4.82 | < 4.82 | – | 4.82 to 5.30 | – | < 4.82 | – | – | < 4.82 | –
5 | CSCC[C@H](NC(=O)[C@H](CO)NC(=O)[C@H](Cc1ccccc1)NC(=O)[C@H](Cc1c[nH]cn1)NC(=O)[C@H](CCCCN)NC(=O)[C@H](CCCNC(=N)N)NC(=O)[C@H](CC(C)C)NC(=O)[C@H](Cc1ccc(O)cc1)NC(=O)[C@H](C)NC(=O)[C@@H](N)Cc1ccc(O)cc1)C(=O)O [Epitope M26] (H-YAYLRKHFSM-OH; N-terminus and C-terminus assumed) | < 4.82 | – | – | < 4.82 | – | 4.82 to 5.30 | 8.9% | 33.9% | 4.82 to 5.30 | < 4.82
6 | CC(C)C[C@H](NC(=O)[C@@H](NC(=O)[C@@H](NC(=O)CNC(=O)[C@H](CCC(N)=O)NC(=O)[C@@H]1CCCN1C(=O)[C@H](CC(C)C)NC(=O)[C@H](CCC(N)=O)NC(=O)[C@H](CC(C)C)NC(=O)[C@@H](N)C(C)C)[C@@H](C)O)[C@@H](C)O)C(=O)O [Epitope M18] (H-VLQLPQGTTL-OH; N-terminus and C-terminus assumed) | < 4.82 | 4.82 to 5.30 | < 4.82 | – | – | < 4.82 | – | – | – | –
7 | CC[C@H](C)[C@H](NC(=O)[C@@H](NC(=O)CNC(=O)[C@H](CC(N)=O)NC(=O)[C@H](CO)NC(=O)[C@H](CC(=O)O)NC(=O)[C@H](C)NC(=O)[C@@H](N)CCSC)[C@@H](C)O)C(=O)N[C@H](C(=O)N[C@H](C(=O)O)C(C)C)[C@@H](C)O [Epitope M48] (H-MADSNGTITV-OH; N-terminus and C-terminus assumed) | < 4.82 | < 4.82 | – | – | – | 4.82 to 5.30 | – | – | – | –
8 | CC(C)C[C@H](NC(=O)[C@@H](NC(=O)[C@H](CCCNC(=N)N)NC(=O)[C@H](CO)NC(=O)[C@@H](NC(=O)[C@H](C)NC(=O)[C@@H](N)C(C)C)[C@@H](C)O)[C@@H](C)O)C(=O)N[C@@H](CO)C(=O)N[C@@H](Cc1ccc(O)cc1)C(=O)O [Epitope M72] (H-VATSRTLSY-OH; N-terminus and C-terminus assumed) | – | – | > 5.30 | < 4.82 | < 4.82 | < 4.82 | – | – | < 4.82 | –
9 | CC[C@H](C)[C@H](NC(=O)[C@@H]1CCCN1C(=O)[C@@H](NC(=O)[C@H](Cc1c[nH]cn1)NC(=O)[C@H](CCCCN)NC(=O)[C@H](CO)NC(=O)[C@H](Cc1ccc(O)cc1)NC(=O)[C@@H](NC(=O)[C@@H](N)CCCCN)[C@@H](C)CC)[C@@H](C)O)C(=O)O [Epitope M34] (H-KIYSKHTPI-OH; N-terminus and C-terminus assumed) | – | > 5.30 | – | – | 4.82 to 5.30 | < 4.82 | 77.4% | 91.2% | < 4.82 | –
10 | CC(C)C[C@H](NC(=O)[C@H](C)NC(=O)[C@H](C)NC(=O)CNC(=O)[C@H](C)NC(=O)CNC(=O)[C@H](Cc1ccccc1)NC(=O)[C@@H](NC(=O)[C@@H](N)Cc1c[nH]c2ccccc12)[C@@H](C)O)C(=O)O [Epitope M33, WTFGAGAAL] (H-WTFGAGAAL-OH; N-terminus and C-terminus assumed) | – | – | – | – | – | < 4.82 | – | – | 4.82 to 5.30 | –
11 | CC(C)[C@H](NC(=O)[C@H](CC(N)=O)NC(=O)[C@H](Cc1ccc(O)cc1)NC(=O)[C@H](C)NC(=O)[C@@H](N)CCCCN)C(=O)N[C@H](C(=O)N[C@@H](CCC(N)=O)C(=O)N[C@@H](C)C(=O)N[C@@H](Cc1ccccc1)C(=O)O)[C@@H](C)O [Epitope M11] (H-KAYNVTQAF-OH) | > 5.30 | 4.82 to 5.30 | – | 4.82 to 5.30 | < 4.82 | – | – | – | < 4.82 | –
